30 compounds from PubChem BioAssay AID493060 (The Scripps Research Institute Molecular Screening Center, 2011) can be followed below.

The assay deals with Aryl hydrocarbon receptor (Homo sapiens) (UniProt P35869). The assay can be described thus: AHR activator potency, dose response, cell-based, luminescence, luciferase reporter, human (AID 493060). Particulars: Human cell line AHR-responsive luciferase reporter. (In general: Reporter assays use an easily measured gene product as a stand-in for the process of interest.)

Activity calls are given as the source filed them. How the calls were made is not given here.

Chain of Aryl hydrocarbon receptor (Homo sapiens) (P35869 whole entry, looked up): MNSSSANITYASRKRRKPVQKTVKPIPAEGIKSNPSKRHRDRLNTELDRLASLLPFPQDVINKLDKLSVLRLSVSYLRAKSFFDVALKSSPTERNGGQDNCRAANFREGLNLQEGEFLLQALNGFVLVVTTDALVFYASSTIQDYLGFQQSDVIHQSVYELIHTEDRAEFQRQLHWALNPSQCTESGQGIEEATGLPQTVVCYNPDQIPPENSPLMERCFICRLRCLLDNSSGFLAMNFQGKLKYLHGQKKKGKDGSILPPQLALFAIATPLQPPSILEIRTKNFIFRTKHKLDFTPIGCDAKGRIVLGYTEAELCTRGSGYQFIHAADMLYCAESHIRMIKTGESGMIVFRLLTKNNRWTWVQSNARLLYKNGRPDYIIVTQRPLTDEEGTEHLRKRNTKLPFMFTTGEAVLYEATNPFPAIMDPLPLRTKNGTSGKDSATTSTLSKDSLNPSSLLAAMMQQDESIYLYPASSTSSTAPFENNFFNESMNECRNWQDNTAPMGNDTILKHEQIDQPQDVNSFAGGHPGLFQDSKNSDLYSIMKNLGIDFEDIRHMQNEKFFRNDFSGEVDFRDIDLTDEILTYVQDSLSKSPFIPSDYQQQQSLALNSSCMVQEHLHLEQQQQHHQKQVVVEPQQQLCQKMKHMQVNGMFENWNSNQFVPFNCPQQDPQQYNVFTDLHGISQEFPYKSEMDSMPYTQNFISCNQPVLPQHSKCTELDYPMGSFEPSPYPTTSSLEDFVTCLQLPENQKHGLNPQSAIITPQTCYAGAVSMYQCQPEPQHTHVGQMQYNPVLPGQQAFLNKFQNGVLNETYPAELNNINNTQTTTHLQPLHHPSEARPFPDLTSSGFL

As a reminder, the EC50 is the concentration giving half of the maximal effect. With `Cc1ccccc1-c1nc(-c2cccnc2)no1`, the EC50 was 1.33 µM.

In the case of `Cn1c(C(=O)N2CCC(C(N)=O)CC2)cc2cc(Cl)ccc21`, the EC50 is 0.26 µM.

As for `Cn1c(N)c(C(=O)Nc2ccccc2F)sc1=S`, the EC50 is 0.767 µM.

For the compound `Cc1cc(Nc2ccc(Br)cc2)n2nc(C)nc2n1`, the EC50 is 0.217 µM.

As to `COC(=O)c1ccccc1NC(=O)Cn1ccnc1`, the EC50 is 2.57 µM.

In the case of `CN1CCN(CCCNC(=O)c2cc3c(-c4ccc(Cl)cc4)nn(C)c3s2)CC1`, the EC50 was 0.282 µM.

With `Cc1csc(SCC(=O)Nc2ccc(Cl)cn2)n1`, the EC50 is 0.683 µM.

With `O=C(Nc1ccon1)c1cnc2sccn2c1=O`, the EC50 entry was “inactive”.

Take `O=C1c2ccccc2-c2nc3ccccc3nc21`: the EC50 is 3.24 µM.

On to `COc1cc2ccccc2cc1C(=O)Nc1ccc(C)cc1`, for which the EC50 is 0.747 µM.

As to `COc1ccccc1NC(=O)Nc1cccnc1`, the EC50 was 1.47 µM.

As for `COc1ccc(NC(=O)c2cccc3c(Br)cccc23)cc1`, the EC50 was 1.86 µM.

Turning to `CCCC(=O)Nc1nn(C)c2nc3cc(C)ccc3cc12`, the EC50 was 0.25 µM.

Take `COc1ccccc1NC(=O)c1ccc2c(c1)nnn2C`: the EC50 is 0.139 µM.

For the compound `CC(=O)c1ccc(NC(=O)c2cc(Cl)nc3ccccc23)cc1`, the EC50 was 0.968 µM.

Regarding `Cc1nc(N)nc(Nc2ccc(Cl)cc2)c1Br`, the EC50 was 1.4 µM.

With `CN(C)c1nc(N)nc(-c2nc3ccccc3s2)n1`, the EC50 was 3.33 µM.

As to `CCC(=O)Nc1cc(OC)c(NC(=O)c2ccccc2)cc1OC`, the EC50 was 2.49 µM.

For the compound `Cc1c(-c2ccn[nH]2)cc(NC(=O)c2ccc(Cl)cc2)c(=O)n1N`, the EC50 was 0.513 µM.

Turning to `Cc1ccc(-c2cc(-c3cccs3)[nH]n2)c(O)c1`, the EC50 was 0.853 µM.

Regarding `CCOC(=O)Cc1cc(-c2ccc(O)cc2)nc2ccc3ccccc3c12`, the EC50 is 1.08 µM.

As for `CCOc1ccccc1NC(=O)c1ccc2nccnc2c1`, the EC50 was 2.84 µM.

With `COc1ccc(Cl)cc1C(=O)Nc1ccc(N(C)C(C)=O)cc1`, the EC50 is 2.41 µM.

As to `COc1ccc(C(=O)Nc2cc(OC)c(NC(=O)c3ccco3)cc2OC)cc1`, the EC50 is 1.62 µM.

Regarding `O=C(CN1CCOCC1)Nc1nc2ccc([N+](=O)[O-])cc2s1`, the EC50 was 6.25 µM.

For the compound `Cc1ccc(Nc2ncccc2C(N)=O)cc1`, the EC50 is 1.13 µM.

As for `COc1ccccc1C(=O)Nc1ccc(N2CCCCC2)cc1`, the EC50 was 2.98 µM.

As for `CCOc1ccc(NC(=O)c2cc3ccccc3cc2OC)cc1`, the EC50 was 1.78 µM.

For the compound `COc1cc2c(cc1NC(=O)Nc1ccc(C)cc1)oc1ccccc12`, the EC50 is 0.889 µM.

Regarding `CCOc1ccc(-c2cc(C)n3nc(C(N)=O)cc3n2)cc1`, the EC50 is 1.33 µM.
